What was measured:
Assay type in all cases: in vivo
[1] = test system: Chenopodium album (CHEAL); test: Glasshouse adjuvant test with nicosulfuron (Example 7); conditions: nicosulfuron 30 or 60 g/ha, adjuvant 0.2% v/v or none, 200 l/ha; growth stage 14; mean over two rates, three replicates, 14 and 21 days
Description: (§1) Compound 1 was tested in a glasshouse against four weed species using the herbicide nicosulfuron. A 20% w/w stock emulsion of compound 1 was prepared additionally containing 2% w/w Gohsenol® GL03 and 2% w/w Pluronic® PE10500 as surfactants. Using this, an agrochemical composition was prepared containing 0.2% v/v of the adjuvant in a track sprayer and was applied at a volume of 200 liters per hectare. Nicosulfuron was applied at either 30 or 60 grams of pesticide per hectare on each of the weed species. The weed species and their growth stage at spraying were Abutilon theophrasti (ABUTH; growth stage 13), Chenopodium album (CHEAL; growth stage 14), Digitaria sanguinalis (DIGSA; growth stage 13), and Setaria viridis (SETVI; growth stage 13).
(§2) Each spray test replicated three times. The efficacy of the herbicide was assessed visually and expressed as a percentage of the leaf area killed. Samples were assessed at time periods of 14 and 21 days following application. The results shown in Table 7 below are mean averages over the two rates of nicosulfuron, three replicates and the two assessment timings, and are compared to the efficacy of nicosulfuron in the absence of an adjuvant.

[2] = test system: Abutilon theophrasti (ABUTH); test: as above; conditions: nicosulfuron 30 or 60 g/ha, adjuvant 0.2% v/v or none, 200 l/ha; growth stage 13; mean over two rates, three replicates, 14 and 21 days
Description: as §1, §2

[3] = test system: Digitaria sanguinalis (DIGSA); test: as above; conditions: nicosulfuron 30 or 60 g/ha, adjuvant 0.2% v/v or none, 200 l/ha; growth stage 13; mean over two rates, three replicates, 14 and 21 days
Description: as §1, §2

[4] = test system: Setaria viridis (SETVI); test: as above; conditions: nicosulfuron 30 or 60 g/ha, adjuvant 0.2% v/v or none, 200 l/ha; growth stage 13; mean over two rates, three replicates, 14 and 21 days
Description: as §1, §2

[5] = test system: four weed species (CHEAL, ABUTH, SETVI, XANST); test: Glasshouse adjuvant test with fomesafen (Example 5), mean across species; conditions: fomesafen 60 or 120 g/ha, adjuvant 0.2% v/v or none
Description: (§3) Compound 1 (N, N-diethyl-3-methylbenzamide) was tested in a glasshouse against four weed species using the herbicide fomesafen. An agrochemical composition was prepared containing 0.2% v/v of the adjuvant in a track sprayer and was applied at a volume of 200 liters per hectare. Fomesafen was applied at either 60 or 120 grams of pesticide per hectare on each of the weed species. The weed species and their growth stage at spraying were Chenopodium album (CHEAL; growth stage 13/14), Abutilon theophrasti (ABUTH; growth stage 12), Setaria viridis (SETVI; growth stage 13), and Xanthium strumarium (XANST; growth stage 12).
(§4) Each spray test was replicated three times. The efficacy of the herbicide was assessed visually and expressed as a percentage of the leaf area killed. Samples were assessed at time periods of 7, 14 and 21 days following application. The results shown in Table 5 below are mean averages over the two rates of fomesafen, three replicates and the three assessment timings, and are compared to the efficacy of fomesafen in the absence of adjuvant.

[6] = test system: Chenopodium album (CHEAL); test: Glasshouse adjuvant test with fomesafen (Example 5); conditions: fomesafen 60 or 120 g/ha, adjuvant 0.2% v/v or none, 200 l/ha; growth stage 13/14; mean over two rates, three replicates, 7, 14 and 21 days
Description: as §3, §4

[7] = test system: Abutilon theophrasti (ABUTH); test: as above; conditions: fomesafen 60 or 120 g/ha, adjuvant 0.2% v/v or none, 200 l/ha; growth stage 12; mean over two rates, three replicates, 7, 14 and 21 days
Description: as §3, §4

[8] = test system: Xanthium strumarium (XANST); test: as above; conditions: fomesafen 60 or 120 g/ha, adjuvant 0.2% v/v or none, 200 l/ha; growth stage 12; mean over two rates, three replicates, 7, 14 and 21 days
Description: as §3, §4

[9] = test system: Setaria viridis (SETVI); test: as above; conditions: fomesafen 60 or 120 g/ha, adjuvant 0.2% v/v or none, 200 l/ha; growth stage 13; mean over two rates, three replicates, 7, 14 and 21 days
Description: as §3, §4

[10] = test system: four weed species (AMATE, BRADE, DIGSA, POLCO); test: Glasshouse adjuvant test with mesotrione (Example 6), mean across species; conditions: mesotrione 45 or 90 g/ha, adjuvant 0.2% v/v or none
[11] = test system: Amaranthus tuberculatus (AMATE); test: Glasshouse adjuvant test with mesotrione (Example 6); conditions: mesotrione 45 or 90 g/ha, adjuvant 0.2% v/v or none, 200 l/ha; growth stage 13/14; mean over two rates, three replicates, 7, 14 and 21 days
Description: Compound 1 was tested in a glasshouse against four weed species using the herbicide mesotrione. A 20% w/w stock emulsion of compound 1 was prepared additionally containing 2% w/w Gohsenol® GL03 and 2% w/w Pluronic® PE10500 as surfactants. Using this, an agrochemical composition was prepared containing 0.2% v/v of the adjuvant in a track sprayer and was applied at a volume of 200 liters per hectare. Mesotrione was applied at either 45 or 90 grams of pesticide per hectare on each of the weed species. The weed species and their growth stage at spraying were Amaranthus tuberculatus (AMATE; growth stage 13/14), Brachiaria decumbens (BRADE; growth stage 13/14), Digitaria sanguinalis (DIGSA; growth stage 14), and Polygonum convolvulus (POLCO; growth stage 11/11.5).
as §4, with “Each” for “Each spray”, “6” for “5”, “mesotrione,” for “fomesafen,”, “mesotrione” for “fomesafen”, “in” for “in the”

[12] = test system: four weed species (ALOMY, AVEFA, LOLPE, SETVI); test: Glasshouse adjuvant test with pinoxaden (Example 8), mean across species; conditions: pinoxaden 7.5 or 15 g/ha, adjuvant 0.2% v/v or none
Description: The adjuvant shown in example 1 was tested in a glasshouse against four weed species in combination with the herbicide pinoxaden. A 20% w/w stock emulsion of compound 1 was prepared additionally containing 2% w/w Gohsenol® GL03 and 2% w/w Pluronic® PE10500 as surfactants. Using this, an agrochemical composition was prepared containing 0.2% v/v of the adjuvant in a track sprayer and was applied at a volume of 200 liters per hectare. Pinoxaden was applied at either 7.5 or 15 grams of pesticide per hectare on each of the weed species. The weed species and their growth stage at spraying were Alopecurus myosuroides (ALOMY; growth stage 13), Avena fatua (AVEFA; growth stage 12); Lolium perenne (LOLPE; growth stage 13), Setaria viridis (SETVI; growth stage 14).
as §2, with “test was” for “test”, “8” for “7 below”, “pinoxaden,” for “nicosulfuron,”, “pinoxaden” for “nicosulfuron”, “of” for “of an”

## CCN(CC)C(=O)c1cccc(C)c1 [Compound 1, N, N-diethyl-3-methylbenzamide]
[1]
  Mean percentage kill CHEAL: 63.8%
[2]
  Mean percentage kill ABUTH: 72.9%
[3]
  Mean percentage kill DIGSA: 89.4%
[4]
  Mean percentage kill SETVI: 93.4%
[5]
  Mean percentage kill, Mean across species: 42.6%
[6]
  Mean percentage kill CHEAL: 80.3%
[7]
  Mean percentage kill ABUTH: 38.9%
[8]
  Mean percentage kill XANST: 35.6%
[9]
  Mean percentage kill SETVI: 15.8%
[10]
  Mean percentage kill, Mean across species: 54.1%
[11]
  Mean percentage kill AMATE: 71.7%
[12]
  Mean percentage kill, Mean across species: 22.1%
